Tests used:
SV40-Luc = SV40-Luc control luciferase reporter assay, SV 5A8 cell line (SV40-Luc and SV40-R-Luc), control for non-specific inhibitors; format: cell-based, human; conditions: SV 5A8 cells derived from SW480, 24 hours of incubation with compound, ratio Firefly/Renilla luciferase
Summary of the method: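 SW480-derived lines with integrated reporters: SV 5A8 (SV40 firefly plus SV40 Renilla), Tcf 33.13 and Tcf 22C11 (Tcf-4 firefly plus SV40 Renilla). Cells seeded 1×10^4/well, compounds added 20-24 h later at titrated concentrations (final DMSO 0.316%) for 24 h. Firefly/Renilla ratio, as % of control, gave IC50 (nM).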

β-catenin/Tcf-4 = assay: cells; format: cell-based; conditions: 24 hours of incubation with compound, ratio Firefly/Renilla luciferase
Summary of the method: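 SW480-derived lines with integrated reporters (Tcf-4-driven firefly luciferase; SV40 firefly as specificity control; SV40 Renilla for cell number/toxicity), treated 24 hours with titrated compounds, final 0.316% DMSO. Dual-luciferase read-out; firefly/Renilla ratio as % of control, duplicate plates, IC50 (nM) from curve fit.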

[1] = Homo sapiens, SW480, 24 h, Tcf 33.13 cells derived from SW480
[2] = Homo sapiens, Tcf22C11, 24 h, Tcf 22C11 cells derived from SW480
[3] = Tcf 22C11 cells derived from SW480
[4] = Tcf 33.13 cells derived from SW480

Row | Compound | IC50 (SV40-Luc; Homo sapiens, SV5A8, 24 h) [nM] | IC50 (β-catenin/Tcf-4; [1]) [nM] | IC50 (β-catenin/Tcf-4; [2]) [nM] | IC50 (SV40-Luc) [nM] | IC50 (β-catenin/Tcf-4; [3]) [nM] | IC50 (β-catenin/Tcf-4; [4]) [nM]
1 | O=C(Nc1ccc(CNc2nc(NC3CCC3)nc3ccccc23)cc1)c1ccc(F)cc1 [Example 115, N-[4-({[2-(cyclobutylamino)quinazolin-4-yl]amino}methyl)phenyl]-4-fluorobenzamide] | > 2830 | 991 | 1380 | – | – | –
2 | Cc1ccc2nc(N3CCN(c4ccccn4)CC3)nc(NCc3ccc(NC(=O)c4ccc(F)cc4)cc3)c2c1 [Example 55, 4-fluoro-N-[4-({[6-methyl-2-(4-pyridin-2-ylpiperazin-1-yl)quinazolin-4-yl]amino}methyl)phenyl]benzamide] | > 18300 | 3260 | 8650 | – | – | –
3 | Cc1ccc2c(NCc3ccc(NC(=O)c4ccc(F)cc4)cc3)nc(N3CCC(N4CCCC4)CC3)nc2c1 [Example 226, 4-fluoro-N-[4-({[7-methyl-2-(4-pyrrolidin-1-ylpiperidin-1-yl)quinazolin-4-yl]amino}methyl)phenyl]benzamide] | > 9280 | 754 | 866 | – | – | –
4 | C=Cc1ccc2c(NCc3ccc(NC(=O)c4ccc(Cl)nc4)cc3)nc(N(C)C)nc2c1 [Example 111, 6-chloro-N-[4-({[2-(dimethylamino)-7-vinylquinazolin-4-yl]amino}methyl)phenyl]nicotinamide] | > 2520 | 181 | 238 | – | – | –
5 | N-(4-{[(2-azetidin-1-yl-7-methylquinazolin-4-yl)amino]methyl}phenyl)-1-benzylpiperidine-4-carboxamide [Example 137] | – | – | – | > 17300 | 1260 | 1130
6 | CN(C)c1nc(NCc2ccc(NC(=O)c3ccc(F)cc3)cc2)c2ccc(-c3cc4ccccc4o3)cc2n1 [Example 101, N-[4-({[7-(1-benzofuran-2-yl)-2-(dimethylamino)quinazolin-4-yl]amino}methyl)phenyl]-4-fluorobenzamide] | > 17600 | 2950 | 2250 | – | – | –
7 | Cc1ccc2c(NCc3ccc(NC(=O)c4ccc(Cl)nc4)cc3)nc(N(C)C)nc2c1 [Example 242, 6-chloro-N-[4-({[2-(dimethylamino)-7-methylquinazolin-4-yl]amino}methyl)phenyl]nicotinamide] | > 5590 | 336 | 318 | – | – | –
8 | CCCC/C=C/c1ccc2nc(N(C)C)nc(NCc3ccc(C(=O)Nc4ccc(F)cc4)cc3)c2c1 [Example 175, E-(4-((2-dimethylamino)-6-(hex-1-enyl)quinazolin-4-ylamino)methyl)-N-(4-fluorophenyl)benzamide] | – | – | – | > 4680 | 712 | 537
9 | C/C=C/c1ccc2c(NCc3ccc(NC(=O)c4ccc(Cl)nc4)cc3)nc(N(C)C)nc2c1 [Example 112, 6-chloro-N-{4-[({2-(dimethylamino)-7-[(1E)-prop-1-en-1-yl]quinazolin-4-yl}amino)methyl]phenyl}nicotinamide] | > 4910 | 118 | 249 | – | – | –
10 | CNc1nc(NCc2ccc(NC(=O)c3ccc(Cl)cc3Cl)cc2)c2cc(C)ccc2n1 [Example 19, 2,4-dichloro-N-[4-({[6-methyl-2-(methylamino)quinazolin-4-yl]amino}methyl)phenyl]benzamide] | > 21400 | 12800 | > 21400 | – | – | –
11 | Cc1ccc2c(NCc3ccc(NC(=O)C4CCN(Cc5ccccc5)CC4)cc3)nc(N3CCN(C)CC3)nc2c1 [Example 141, 1-benzyl-N-[4-({[7-methyl-2-(4-methylpiperazin-1-yl)quinazolin-4-yl]amino}methyl)phenyl]piperidine-4-carboxamide] | > 17700 | 1330 | 1580 | – | – | –
12 | Cc1ccc2c(NCc3ccc(NC(=O)c4ccc(F)cc4)cc3)nc(N3CCN(c4ncccn4)CC3)nc2c1 [Example 216, 4-fluoro-N-[4-({[7-methyl-2-(4-pyrimidin-2-ylpiperazin-1-yl)quinazolin-4-yl]amino}methyl)phenyl]benzamide] | > 3220 | 315 | 464 | – | – | –
13 | Cc1ccc2c(NCc3ccc(NC(=O)c4ccc(Br)cc4)cc3)nc(N(C)C)nc2c1 [Example 239, 4-bromo-N-[4-({[2-(dimethylamino)-7-methylquinazolin-4-yl]amino}methyl)phenyl]benzamide] | > 1270 | 193 | 204 | – | – | –
14 | CNc1nc(N[C@H](C)c2ccc(NC(=O)c3ccc(F)cc3)cc2)c2cccc(C)c2n1 [Example 276, (R)-4-fluoro-N-(4-(1-(8-methyl-2-(methylamino)quinazolin-4-ylamino)ethyl)phenyl)benzamide] | > 2490 | 494 | 653 | – | – | –
15 | O=C(Nc1ccc(CNc2nc(NC3CCC3)nc3ccc(C(F)(F)F)cc23)cc1)C1CCN(Cc2ccc(F)cc2)CC1 [Example 159, N-[4-({[2-(cyclobutylamino)-6-(trifluoromethyl)quinazolin-4-yl]amino}methyl)phenyl]-1-(4-fluorobenzyl)piperidine-4-carboxamide] | > 8240 | > 8240 | > 8240 | – | – | –
16 | Cc1ccc2c(NCc3ccc(NC(=O)C4CCN(Cc5ccccc5F)CC4)cc3)nc(N(C)C)nc2c1 [Example 252, N-[4-({[2-(dimethylamino)-7-methylquinazolin-4-yl]amino}methyl)phenyl]-1-(2-fluorobenzyl)piperidine-4-carboxamide] | > 8340 | 332 | 568 | – | – | –
17 | CN(C)c1nc(NCc2ccc(NC(=O)c3ccc(F)cc3)cc2)c2ccc(CN)cc2n1 [Example 90, N-[4-({[7-(aminomethyl)-2-(dimethylamino)quinazolin-4-yl]amino}methyl)phenyl]-4-fluorobenzamide] | > 4830 | 1300 | 2860 | – | – | –
18 | Cc1ccc2nc(N(C)C)nc(NCc3ccc(NC(=O)c4ccc(F)cc4)cc3)c2c1 [Example 39, N-[4-({[2-(dimethylamino)-6-methylquinazolin-4-yl]amino}methyl)phenyl]-4-fluorobenzamide] | – | – | – | > 5820 | 428 | 217
19 | Cc1ccc2nc(N3CC=CC3)nc(NCc3ccc(NC(=O)C4CCN(Cc5ccccc5)CC4)cc3)c2c1 [Example 80, 1-benzyl-N-[4-({[2-(2,5-dihydro-1H-pyrrol-1-yl)-6-methylquinazolin-4-yl]amino}methyl)phenyl]piperidine-4-carboxamide] | > 9390 | 597 | 761 | – | – | –
20 | CN(C)c1ccc(-c2ccc3nc(N(C)C)nc(NCc4ccc(NC(=O)c5ccc(F)cc5)cc4)c3c2)nc1 [Example 169] | – | – | – | > 2330 | 229 | 453
21 | CN(C)c1cccc(-c2ccc3nc(N(C)C)nc(NCc4ccc(C(=O)Nc5ccc(F)cc5)cc4)c3c2)c1 [Example 170] | – | – | – | > 2340 | 692 | 806
22 | Cc1ccc2nc(N3C[C@@H](C)N[C@@H](C)C3)nc(NCc3ccc(NC(=O)C4CCN(Cc5ccccc5)CC4)cc3)c2c1 [Example 78, 1-benzyl-N-{4-[({2-[(3R,5S)-3,5-dimethylpiperazin-1-yl]-6-methylquinazolin-4-yl}amino)methyl]phenyl}piperidine-4-carboxamide] | > 17300 | 955 | 1390 | – | – | –
23 | Cc1ccc2c(NCc3ccc(NC(=O)C4CCN(Cc5ccccc5)CC4)cc3)nc(N(C)CCc3ccccn3)nc2c1 [Example 145, 1-benzyl-N-{4-[({7-methyl-2-[methyl(2-pyridin-2-ylethyl)amino]quinazolin-4-yl}amino)methyl]phenyl}piperidine-4-carboxamide] | > 16700 | 1230 | 1350 | – | – | –
24 | Cc1ccc2c(N[C@@H](C)c3ccc(NC(=O)C4CCN(Cc5ccc(F)c(F)c5)CC4)cc3)nc(N(C)C)nc2c1 [Example 268, 1-(3,4-difluorobenzyl)-N-[4-((1S)-1-{[2-(dimethylamino)-7-methylquinazolin-4-yl]amino}ethyl)phenyl]piperidine-4-carboxamide] | > 7870 | 203 | 215 | – | – | –
25 | Cc1ccc2c(NCc3ccc(NC(=O)c4ccc(C)nc4)cc3)nc(N(C)C)nc2c1 [Example 241, N-[4-({[2-(dimethylamino)-7-methylquinazolin-4-yl]amino}methyl)phenyl]-6-methylnicotinamide] | > 23400 | 813 | 1030 | – | – | –
26 | Cc1ccc2nc(N3CCN(c4ncccn4)CC3)nc(NCc3ccc(NC(=O)C4CCN(Cc5ccccc5)CC4)cc3)c2c1 [Example 82, 1-benzyl-N-[4-({[6-methyl-2-(4-pyrimidin-2-ylpiperazin-1-yl)quinazolin-4-yl]amino}methyl)phenyl]piperidine-4-carboxamide] | > 7960 | 891 | 872 | – | – | –
27 | CNc1nc(NCc2ccc(NC(=O)c3ccc(F)c(F)c3)cc2)c2cc(C)ccc2n1 [Example 32, 3,4-difluoro-N-[4-({[6-methyl-2-(methylamino)quinazolin-4-yl]amino}methyl)phenyl]benzamide] | > 577 | 81 | 100 | – | – | –

From US20090004185A1, “AMINO-SUBSTITUTED QUINAZOLINE DERIVATIVES AS INHIBITORS OF BETA-CATENIN/TCF-4 PATHWAY AND CANCER TREATMENT AGENTS” (WYETH, priority 2007, published 2009)
